Experimental data as given in the NIST ThermoML archive (doi:10.1021/je050089u).

Test: excess molar enthalpy (molar enthalpy of mixing); xn = mol fraction of the nth substance listed
Details: Fluid (supercritical or subcritical phases)

COC(=O)OC [dimethyl carbonate] + O=C=O
excess molar enthalpy [kcal/mol]
Details | 303.15 K | 308.15 K
5000 kPa, x2 = 0.1537 | – | -0.47
5000 kPa, x2 = 0.2239 | – | -0.66
5000 kPa, x2 = 0.2901 | – | -0.855
5000 kPa, x2 = 0.412 | – | -1.2
5000 kPa, x2 = 0.4682 | – | -1.36
5000 kPa, x2 = 0.5215 | – | -1.49
5000 kPa, x2 = 0.6205 | – | -1.73
5000 kPa, x2 = 0.7103 | – | -1.93
5000 kPa, x2 = 0.7189 | – | -1.93
5000 kPa, x2 = 0.7273 | – | -1.88
5000 kPa, x2 = 0.7923 | – | -1.4
5000 kPa, x2 = 0.8674 | – | -0.854
5000 kPa, x2 = 0.9364 | – | -0.391
5000 kPa, x2 = 0.9877 | – | -0.00526
5000 kPa, x2 = 0.9939 | – | 0.0268
5500 kPa, x2 = 0.1547 | – | -0.44
5500 kPa, x2 = 0.2917 | – | -0.836
5500 kPa, x2 = 0.3544 | – | -1.02
5500 kPa, x2 = 0.4138 | – | -1.16
5500 kPa, x2 = 0.47 | – | -1.31
5500 kPa, x2 = 0.5234 | – | -1.45
5500 kPa, x2 = 0.574 | – | -1.57
5500 kPa, x2 = 0.6222 | – | -1.69
5500 kPa, x2 = 0.6681 | – | -1.78
5500 kPa, x2 = 0.7119 | – | -1.89
5500 kPa, x2 = 0.7536 | – | -1.94
5500 kPa, x2 = 0.7698 | – | -1.96
5500 kPa, x2 = 0.7935 | – | -1.79
5500 kPa, x2 = 0.8317 | – | -1.46
5500 kPa, x2 = 0.8682 | – | -1.12
5500 kPa, x2 = 0.9368 | – | -0.498
6000 kPa, x2 = 0.1556 | – | -0.426
6000 kPa, x2 = 0.2931 | – | -0.79
6000 kPa, x2 = 0.4154 | – | -1.12
6000 kPa, x2 = 0.4717 | – | -1.25
6000 kPa, x2 = 0.5757 | – | -1.5
6000 kPa, x2 = 0.6238 | – | -1.6
6000 kPa, x2 = 0.7132 | – | -1.77
6000 kPa, x2 = 0.7549 | – | -1.84
6000 kPa, x2 = 0.7946 | – | -1.91
6000 kPa, x2 = 0.7947 | -1.9 | –
6000 kPa, x2 = 0.8326 | – | -1.93
6000 kPa, x2 = 0.8327 | -1.93 | –
6000 kPa, x2 = 0.869 | – | -1.5
6000 kPa, x2 = 0.8691 | -1.96 | –
6000 kPa, x2 = 0.8901 | -1.95 | –
6000 kPa, x2 = 0.897 | -1.94 | –
6000 kPa, x2 = 0.9039 | -1.82 | –
6000 kPa, x2 = 0.9372 | -1.18 | -0.715
6000 kPa, x2 = 0.9692 | – | -0.276
6000 kPa, x2 = 0.9693 | -0.547 | –
6500 kPa, x2 = 0.0807 | – | -0.219
6500 kPa, x2 = 0.1564 | – | -0.404
6500 kPa, x2 = 0.2275 | – | -0.582
6500 kPa, x2 = 0.2944 | – | -0.751
6500 kPa, x2 = 0.3574 | – | -0.928
6500 kPa, x2 = 0.4169 | – | -1.05
6500 kPa, x2 = 0.4733 | – | -1.2
6500 kPa, x2 = 0.5266 | – | -1.31
6500 kPa, x2 = 0.5772 | – | -1.41
6500 kPa, x2 = 0.6253 | – | -1.52
6500 kPa, x2 = 0.671 | – | -1.61
6500 kPa, x2 = 0.7145 | – | -1.67
6500 kPa, x2 = 0.756 | – | -1.75
6500 kPa, x2 = 0.7956 | – | -1.8
6500 kPa, x2 = 0.8335 | – | -1.83
6500 kPa, x2 = 0.8697 | – | -1.85
6500 kPa, x2 = 0.8837 | – | -1.84
6500 kPa, x2 = 0.9044 | – | -1.61
6500 kPa, x2 = 0.9376 | – | -1.02
6500 kPa, x2 = 0.9694 | – | -0.47
7000 kPa, x2 = 0.0812 | – | -0.208
7000 kPa, x2 = 0.1572 | – | -0.389
7000 kPa, x2 = 0.2285 | – | -0.551
7000 kPa, x2 = 0.2956 | – | -0.722
7000 kPa, x2 = 0.3587 | – | -0.859
7000 kPa, x2 = 0.4184 | – | -1
7000 kPa, x2 = 0.4747 | – | -1.11
7000 kPa, x2 = 0.528 | – | -1.23
7000 kPa, x2 = 0.5786 | – | -1.32
7000 kPa, x2 = 0.6266 | – | -1.42
7000 kPa, x2 = 0.6723 | – | -1.49
7000 kPa, x2 = 0.7157 | – | -1.56
7000 kPa, x2 = 0.7571 | – | -1.62
7000 kPa, x2 = 0.7966 | – | -1.65
7000 kPa, x2 = 0.8343 | – | -1.69
7000 kPa, x2 = 0.8703 | – | -1.71
7000 kPa, x2 = 0.9049 | – | -1.68
7000 kPa, x2 = 0.9249 | – | -1.66
7000 kPa, x2 = 0.9443 | – | -1.35
7000 kPa, x2 = 0.9507 | – | -1.24
7000 kPa, x2 = 0.9697 | – | -0.767
7500 kPa, x2 = 0.0816 | – | -0.178
7500 kPa, x2 = 0.1579 | – | -0.338
7500 kPa, x2 = 0.2294 | – | -0.499
7500 kPa, x2 = 0.2967 | – | -0.633
7500 kPa, x2 = 0.36 | – | -0.771
7500 kPa, x2 = 0.4197 | – | -0.885
7500 kPa, x2 = 0.476 | – | -0.996
7500 kPa, x2 = 0.5294 | – | -1.09
7500 kPa, x2 = 0.5799 | – | -1.17
7500 kPa, x2 = 0.6279 | – | -1.24
7500 kPa, x2 = 0.6734 | – | -1.32
7500 kPa, x2 = 0.7168 | – | -1.37
7500 kPa, x2 = 0.7581 | – | -1.42
7500 kPa, x2 = 0.7974 | – | -1.44
7500 kPa, x2 = 0.835 | – | -1.46
7500 kPa, x2 = 0.871 | – | -1.47
7500 kPa, x2 = 0.9053 | – | -1.48
7500 kPa, x2 = 0.9382 | – | -1.42
7500 kPa, x2 = 0.9698 | – | -1.24
7500 kPa, x2 = 0.9759 | – | -1.02
